Source: the supplement of paper PMC3937590

Experiments:
Assay in all cases: -log10 GI50 (growth inhibition 50%) (-log10(M)); higher = more potent growth inhibition
BT483 = system: BT483
How it was run: (§1)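 The reported figure is the negative logarithm of GI50, defined as the molar concentration that produces the set level of growth inhibition. The logarithm is base 10. It comes from a Gompertz curve fitted by nonlinear least squares to 72-hour luminescence data from breast cancer cell lines given nine doses in 1:5 serial dilution, in triplicate, with a time-zero plate as reference. A < qualifier marks values equal to the top dose.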

SUM185PE = system: SUM185PE
How it was run: as §1

184A1 = system: 184A1
How it was run: as §1

S1 = system: S1
How it was run: as §1

SUM159PT = system: SUM159PT
How it was run: as §1

UACC812 = system: UACC812
How it was run: as §1

HCC1937 = system: HCC1937
How it was run: as §1

HCC70 = system: HCC70
How it was run: as §1

MDAMB175VII = system: MDAMB175VII
How it was run: as §1

MDAMB157 = system: MDAMB157
How it was run: as §1

HCC1187 = system: HCC1187
How it was run: as §1

MCF7 = system: MCF7
How it was run: as §1

MCF10A = system: MCF10A
How it was run: as §1

BT474 = system: BT474
How it was run: as §1

SUM52PE = system: SUM52PE
How it was run: as §1

MDAMB361 = system: MDAMB361
How it was run: as §1

BT549 = system: BT549
How it was run: as §1

MDAMB453 = system: MDAMB453
How it was run: as §1

T4 = system: T4
How it was run: as §1

SKBR3 = system: SKBR3
How it was run: as §1

HCC1143 = system: HCC1143
How it was run: as §1

HCC3153 = system: HCC3153
How it was run: as §1

HCC1569 = system: HCC1569
How it was run: as §1

HCC1806 = system: HCC1806
How it was run: as §1

ZR75B = system: ZR75B
How it was run: as §1

LY2 = system: LY2
How it was run: as §1

MDAMB415 = system: MDAMB415
How it was run: as §1

UACC893 = system: UACC893
How it was run: as §1

ZR751 = system: ZR751
How it was run: as §1

T47D = system: T47D
How it was run: as §1

MCF10F = system: MCF10F
How it was run: as §1

HS578T = system: HS578T
How it was run: as §1

MDAMB231 = system: MDAMB231
How it was run: as §1

HCC1954 = system: HCC1954
How it was run: as §1

MDAMB134VI = system: MDAMB134VI
How it was run: as §1

HBL100 = system: HBL100
How it was run: as §1

MDAMB436 = system: MDAMB436
How it was run: as §1

SUM149PT = system: SUM149PT
How it was run: as §1

MCF12A = system: MCF12A
How it was run: as §1

HCC2185 = system: HCC2185
How it was run: as §1

HCC1428 = system: HCC1428
How it was run: as §1

SUM1315MO2 = system: SUM1315MO2
How it was run: as §1

HCC202 = system: HCC202
How it was run: as §1

184B5 = system: 184B5
How it was run: as §1

SUM229PE = system: SUM229PE
How it was run: as §1

ZR7530 = system: ZR7530
How it was run: as §1

BT20 = system: BT20
How it was run: as §1

600MPE = system: 600MPE
How it was run: as §1

AU565 = system: AU565
How it was run: as §1

T47D_KBluc = system: T47D_KBluc
How it was run: as §1

CAMA1 = system: CAMA1
How it was run: as §1

HCC1419 = system: HCC1419
How it was run: as §1

SUM225CWN = system: SUM225CWN
How it was run: as §1

HCC1395 = system: HCC1395
How it was run: as §1

HCC38 = system: HCC38
How it was run: as §1

MX1 = system: MX1
How it was run: as §1

## O=C(O)C(=O)O.[NH-][C@@H]1CCCC[C@H]1[NH-].[Pt+2] [Oxaliplatin]
BT483
  -log10 GI50: 4.56
SUM185PE
  -log10 GI50: 4.39
184A1
  -log10 GI50: 5.89
S1
  -log10 GI50: 4.68
SUM159PT
  -log10 GI50: 5.6
UACC812
  -log10 GI50: 5.85
HCC1937
  -log10 GI50: 5.1
HCC70
  -log10 GI50: 5.38
MDAMB175VII
  -log10 GI50: 5.44
MDAMB157
  -log10 GI50: 4.8
HCC1187
  -log10 GI50: 5.85
MCF7
  -log10 GI50: 5.31
MCF10A
  -log10 GI50: 5.41
BT474
  -log10 GI50: 4.73
SUM52PE
  -log10 GI50: 5.46
MDAMB361
  -log10 GI50: 5.46
BT549
  -log10 GI50: 5.81
MDAMB453
  -log10 GI50: 5.19
T4
  -log10 GI50: 5.21
SKBR3
  -log10 GI50: 5.7
HCC1143
  -log10 GI50: 4.7
HCC3153
  -log10 GI50: 5.19
HCC1569
  -log10 GI50: 5.35
HCC1806
  -log10 GI50: 5.45
ZR75B
  -log10 GI50: 5.52
LY2
  -log10 GI50: 5.45
MDAMB415
  -log10 GI50: 4.53
UACC893
  -log10 GI50: 3.83
ZR751
  -log10 GI50: 5.61
T47D
  -log10 GI50: 5.55
MCF10F
  -log10 GI50: 5.35
HS578T
  -log10 GI50: 4.74
MDAMB231
  -log10 GI50: 4.9
HCC1954
  -log10 GI50: 5.95
MDAMB134VI
  -log10 GI50: 3.54
HBL100
  -log10 GI50: 5.65
MDAMB436
  -log10 GI50: 4.46
SUM149PT
  -log10 GI50: 5.83
MCF12A
  -log10 GI50: 5.75
HCC2185
  -log10 GI50: 5.54
HCC1428
  -log10 GI50: 5.09
SUM1315MO2
  -log10 GI50: 4.86
HCC202
  -log10 GI50: 5.27
184B5
  -log10 GI50: 5.57
SUM229PE
  -log10 GI50: 5.72
ZR7530
  -log10 GI50: < 3.2

## CC(C)C[C@H](NC(=O)[C@H](Cc1ccccc1)NC(=O)c1cnccn1)B(O)O [Bortezomib]
BT483
  -log10 GI50: 7.44
SUM185PE
  -log10 GI50: 8.27
184A1
  -log10 GI50: 8.18
SUM159PT
  -log10 GI50: 8.14
BT20
  -log10 GI50: 7.33
HCC1937
  -log10 GI50: 8.1
600MPE
  -log10 GI50: 6.85
HCC70
  -log10 GI50: 8.6
MDAMB175VII
  -log10 GI50: 8.3
MDAMB157
  -log10 GI50: 8.16
HCC1187
  -log10 GI50: 8.26
MCF7
  -log10 GI50: 7.75
AU565
  -log10 GI50: 8.32
MCF10A
  -log10 GI50: 6.64
BT474
  -log10 GI50: 8.24
SUM52PE
  -log10 GI50: 8.28
MDAMB361
  -log10 GI50: 5.54
BT549
  -log10 GI50: 8.21
MDAMB453
  -log10 GI50: 8.07
SKBR3
  -log10 GI50: 7.88
HCC1143
  -log10 GI50: 8.12
HCC3153
  -log10 GI50: 7.9
T47D_KBluc
  -log10 GI50: 6.52
HCC1569
  -log10 GI50: 8.12
HCC1806
  -log10 GI50: 7.59
ZR75B
  -log10 GI50: 7.53
LY2
  -log10 GI50: 6.46
MDAMB415
  -log10 GI50: 7.4
CAMA1
  -log10 GI50: 7.9
HCC1419
  -log10 GI50: 8.86
SUM225CWN
  -log10 GI50: 8
ZR751
  -log10 GI50: 7.55
T47D
  -log10 GI50: 8.02
MCF10F
  -log10 GI50: 7.59
HS578T
  -log10 GI50: 7.81
MDAMB231
  -log10 GI50: 7.66
HCC1954
  -log10 GI50: 8.13
HCC1395
  -log10 GI50: 8.15
HCC38
  -log10 GI50: 7.98
MX1
  -log10 GI50: 8.06
MDAMB134VI
  -log10 GI50: 8.08
HBL100
  -log10 GI50: 7.35
SUM149PT
  -log10 GI50: 8
MCF12A
  -log10 GI50: 7.39
HCC2185
  -log10 GI50: 8.35
HCC1428
  -log10 GI50: 7.28
SUM1315MO2
  -log10 GI50: 7.75
HCC202
  -log10 GI50: 8.14
184B5
  -log10 GI50: 8.33
SUM229PE
  -log10 GI50: 7.48

## CN(Cc1cnc2nc(N)nc(N)c2n1)c1ccc(C(=O)N[C@@H](CCC(=O)O)C(=O)O)cc1 [Methotrexate]
BT483
  -log10 GI50: 3.63
SUM185PE
  -log10 GI50: < 3.48
184A1
  -log10 GI50: 7.18
SUM159PT
  -log10 GI50: < 3.48
BT20
  -log10 GI50: < 3.48
HCC1937
  -log10 GI50: < 3.48
600MPE
  -log10 GI50: 5.39
HCC70
  -log10 GI50: < 3.48
MDAMB175VII
  -log10 GI50: < 3.48
MDAMB157
  -log10 GI50: 7.12
HCC1187
  -log10 GI50: 5.59
MCF7
  -log10 GI50: 7.34
AU565
  -log10 GI50: 5.36
MCF10A
  -log10 GI50: 7.39
BT474
  -log10 GI50: < 3.48
SUM52PE
  -log10 GI50: < 3.48
MDAMB361
  -log10 GI50: 6.8
BT549
  -log10 GI50: < 3.48
MDAMB453
  -log10 GI50: < 3.48
SKBR3
  -log10 GI50: 6.28
HCC1143
  -log10 GI50: 7.62
HCC3153
  -log10 GI50: < 3.48
T47D_KBluc
  -log10 GI50: 6.57
HCC1569
  -log10 GI50: < 3.48
HCC1806
  -log10 GI50: 5.76
ZR75B
  -log10 GI50: < 3.48
LY2
  -log10 GI50: 7.47
MDAMB415
  -log10 GI50: < 3.48
CAMA1
  -log10 GI50: 6.97
HCC1419
  -log10 GI50: 7.24
SUM225CWN
  -log10 GI50: < 3.48
ZR751
  -log10 GI50: 7.31
T47D
  -log10 GI50: < 3.48
MCF10F
  -log10 GI50: 7
HS578T
  -log10 GI50: < 3.48
MDAMB231
  -log10 GI50: < 3.48
HCC1954
  -log10 GI50: 8.07
HCC1395
  -log10 GI50: < 3.48
HCC38
  -log10 GI50: < 3.48
MX1
  -log10 GI50: 7.82
MDAMB134VI
  -log10 GI50: < 3.48
HBL100
  -log10 GI50: < 3.48
SUM149PT
  -log10 GI50: < 3.48
MCF12A
  -log10 GI50: 5.22
HCC2185
  -log10 GI50: < 3.48
HCC1428
  -log10 GI50: < 3.48
SUM1315MO2
  -log10 GI50: < 3.48
HCC202
  -log10 GI50: 7.69
184B5
  -log10 GI50: 7.37
SUM229PE
  -log10 GI50: < 3.48
